Converted amounts (≈) assume the structure as drawn.
How the values were obtained:
[1] = system: Acinetobacter baumannii (ACCC11038); assay: MIC, broth microdilution; settings: read-out: MIC, 8. A. baumannii (ACCC11038)
[2] = system: Escherichia coli (CMCC44103); assay: MIC, broth microdilution; settings: CMCC44103, read-out: MIC, 5. E. coli (CMCC44103)
[3] = system: Shigella dysenteriae (CMCC(B)51105); assay: MIC, broth microdilution; format: cell-based; settings: read-out: MIC, 9. S. dysenteriae (CMCC(B)51105)
[4] = system: Staphylococcus aureus (CMCC26003); assay: MIC, broth microdilution; settings: CMCC26003, read-out: MIC, 1. S. aureus (CMCC26003)
[5] = system: Escherichia coli (SYPB-3820) (multiple-resistant strain); assay: MIC, broth microdilution; settings: read-out: MIC, 7. E. coli (SYPB-3820) (multiple-resistant strain)
[6] = system: mouse skin wound infected with drug-resistant E. coli (SYPB-3820); assay: Mouse full-thickness skin wound infection and healing; format: in vivo, BALB/c mice
Method: (§1) Briefly, adult female BALB/c mice (18–22 g) were obtained from the Laboratory Animal Center of Shenyang Pharmaceutical University and performed in compliance with the guidelines of the Institutional Animal Care and Use Committee of Shenyang Pharmaceutical University. Each mouse was operated on an 8-mm in diameter round-shape wound under surgery conditions with an intraperitoneal injection of ketamine (90 mg/kg) and xylazine (10 mg/kg). The mice were randomly divided into 10 groups, including one normal group, three model groups, three treatment groups, and three positive groups (n = 10 in each group), then the wounds were infected with 40 μl (1 × 10^8 CFU/mL) of E. coli (CMCC44103) or drug-resistant E. coli (SYPB-3820) or S. aureus (CMCC26003), respectively, except for the normal group. Forty-eight hours later, the wounds of three model groups were treated with a sterile 0.85% saline solution. […] All the wounds were treated twice 1 day and observed every 24 h for 14 days. On days 1, 3, 5, 7, and 10, 100 mg of treated skin tissue was removed and homogenized in 0.9 ml of sterile 0.85% saline solution, then the samples were diluted and plated onto Luria-Bertani (LB) medium. After incubation at 37°C for 20 h, the CFUs were counted to represent the bacterial number in the wounds.

[7] = system: mouse skin wound infected with S. aureus (CMCC26003); assay: as above; format: in vivo, BALB/c mice
Method: as §1

[8] = system: mouse skin wound infected with E. coli (CMCC44103); assay: as above; format: in vivo, BALB/c mice
Method: as §1

[9] = system: Klebsiella pneumoniae (CMCC46117); assay: MIC, broth microdilution; settings: CMCC46117, read-out: MIC, 6. K. pneumoniae (CMCC46117)
[10] = system: multiple-resistant Staphylococcus aureus (MRSA186); assay: MIC, broth microdilution; settings: read-out: MIC, 2. multiple-resistant S. aureus (MRSA186)
[11] = system: genomic DNA of S. aureus (CMCC26003); assay: Peptide and DNA binding assay (gel retardation); parameters: species or system Staphylococcus aureus; settings: 0.5–8 × MIC (1–16 μg/ml), 37°C, 30 min, approx. 400 ng DNA
Method: (§2) The gel retardation experiment was conducted according to the method described by [Kim et al. (2018)] for exploring the influence of AMPs on the bacterial genome. The bacterial genomic DNAs were extracted by using a Vazyme FastPure® Bacteria DNA Isolation Mini Kit (Nanjing Vazyme Biotech Co., Ltd., Nanjing, China). […] DNA treated with Penetratin (reported as cell-penetrating peptide) ([de Mello et al., 2019]) and DNA untreated with AMP were served as positive and negative control, respectively. The extent of DNA migration was measured by agarose gel electrophoresis using a gel imaging system (Beijing Sage Creation Science, Beijing, China).

[12] = system: genomic DNA of E. coli (CMCC44103); assay: Peptide and DNA binding assay (gel retardation); parameters: species or system Escherichia coli; settings: 0.5–8 × MIC (1–16 μg/ml), 37°C, 30 min, approx. 400 ng DNA
Method: as §2

[13] = system: genomic DNA of E. coli (SYPB-3820); assay: Peptide and DNA binding assay (gel retardation); parameters: species or system Escherichia coli; settings: 0.5–8 × MIC (1–16 μg/ml), 37°C, 30 min, approx. 400 ng DNA
Method: as §2

Q: C[C@H]1COc2c(N3CCN(C)CC3)c(F)cc3c(=O)c(C(=O)O)cn1c23 [Levofloxacin] was tested. Which MIC [1] did it give?
A: The MIC was 0.06 µg/mL (≈ 0.166 µM).

Q: What about the MIC [2] of the same molecule?
A: Its MIC is 0.03 µg/mL (≈ 0.083 µM).

Q: What about the MIC [3] of the same molecule?
A: Its MIC is 0.06 µg/mL (≈ 0.166 µM).

Q: What about the MIC [4] of the same molecule?
A: Its MIC is 0.12 µg/mL (≈ 0.332 µM).

Q: And the MIC [5]?
A: Its MIC is 8 µg/mL (≈ 22.1 µM).

Q: And the “Skin wound bacterial burden” value ([6]; 10 days later, E. coli (SYPB-3820) infected wound, topical 100 μl at 8 × MIC twice a day, mean ± SD)?
A: Its value is “(2.29 ± 3.78) × 10^4 CFU/g”.

Q: And the “Reduction of bacterial counts” value ([6]; day 10 vs initial burden, E. coli (SYPB-3820))?
A: The value was “five”.

Q: What about the “Wound healing (observation)” value ([6]; day 14, E. coli (SYPB-3820) infected wound) of the same molecule?
A: The value was “basically completely healed”.

Q: What about the “Skin wound bacterial burden” value ([7]; day 10, S. aureus (CMCC26003) infected wound, topical 100 μl at 8 × MIC twice a day, mean ± SD) of the same molecule?
A: Its value is “(5.37 ± 2.89) × 10^3 CFU/g”.

Q: And the “Reduction of bacterial burden” value ([7]; day 10 vs initial burden, S. aureus (CMCC26003))?
A: Its value is “seven”.

Q: What about the “Wound healing (observation)” value ([7]; day 14, S. aureus (CMCC26003) infected wound) of the same molecule?
A: The value was “basically completely healed”.

Q: And the “Skin wound bacterial burden” value ([8]; day 10, E. coli (CMCC44103) infected wound, topical 100 μl at 8 × MIC twice a day, mean ± SD)?
A: Its value is “(3.91 ± 2.87) × 10^3 CFU/g”.

Q: What about the “Decrease of bacterial load” value ([8]; day 10 vs initial burden, E. coli (CMCC44103)) of the same molecule?
A: Its value is “six”.

Q: What about the “Wound healing (observation)” value ([8]; day 14, E. coli (CMCC44103) infected wound) of the same molecule?
A: Its value is “basically completely healed”.

Q: What about the MIC [9] of the same molecule?
A: The MIC was 0.03 µg/mL (≈ 0.083 µM).

Q: With CN[C@H](CC(C)C)C(=O)N[C@H]1C(=O)N[C@@H](CC(N)=O)C(=O)N[C@H]2C(=O)N[C@H]3C(=O)N[C@H](C(=O)N[C@H](C(=O)O)c4cc(O)cc(O)c4-c4cc3ccc4O)[C@H](O)c3ccc(c(Cl)c3)Oc3cc2cc(c3O[C@@H]2O[C@H](CO)[C@@H](O)[C@H](O)[C@H]2O[C@H]2C[C@](C)(N)[C@H](O)[C@H](C)O2)Oc2ccc(cc2Cl)[C@H]1O [Vancomycin] as the molecule, how does the MIC [10] read?
A: Its MIC is 1 µg/mL (≈ 0.69 µM).

Q: With Penetratin as the molecule, how does the “Binding to genomic DNA (gel retardation)” value [11] read?
A: Its value is “bound with the bacterial genomic DNA and blocked the migration”.

Q: What about the “Binding to genomic DNA (gel retardation)” value [12] of the same molecule?
A: The value was “bound with the bacterial genomic DNA and blocked the migration”.

Q: And the “Binding to genomic DNA (gel retardation)” value [13]?
A: Its value is “bound with the bacterial genomic DNA and blocked the migration”.

Source: article PMC9083330, “An Efficient Evaluation System Accelerates α-Helical Antimicrobial Peptide Discovery and Its Application to Global Human Genome Mining” (Frontiers in Microbiology, 2022)
